Data reported in the supplement of paper PMC6045584.
± gives the standard deviation of the averaged measurements.

Columns and labels:
OLAPARIB = compound: O=C(c1cc(Cc2n[nH]c(=O)c3ccccc23)ccc1F)N1CCN(C(=O)C2CC2)CC1 [OLAPARIB]; test: surviving fraction relative to DMSO-only wells; higher = less growth inhibition; conditions: exposure time: 5 days
How it was run: (§1)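 Each tumour cell line was screened three times, and only lines with replicate Pearson r >0.7 and median Z' >0.3 were kept. Cells in log phase were seeded at 250–500 per well in 384-well plates, left 24 hours, then exposed continuously for five days to inhibitors at 0.5, 1, 5, 10, 50, 100, 500 and 1000 nM. Viability was read as CellTiter-Glo luminescence, with surviving fraction normalised to the median of DMSO-only wells.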

CRIZOTINIB = compound: C[C@@H](Oc1cc(-c2cnn(C3CCNCC3)c2)cnc1N)c1c(Cl)ccc(F)c1Cl [CRIZOTINIB]; test: as above; conditions: exposure time: 5 days
How it was run: as §1

Row | Test System | surviving fraction (OLAPARIB; 0.5 nM) | surviving fraction (OLAPARIB; 1 nM) | surviving fraction (OLAPARIB; 5 nM) | surviving fraction (OLAPARIB; 10 nM) | surviving fraction (OLAPARIB; 50 nM) | surviving fraction (OLAPARIB; 100 nM) | surviving fraction (OLAPARIB; 500 nM) | surviving fraction (OLAPARIB; 1000 nM) | surviving fraction (CRIZOTINIB; 0.5 nM) | surviving fraction (CRIZOTINIB; 1 nM) | surviving fraction (CRIZOTINIB; 50 nM) | surviving fraction (CRIZOTINIB; 100 nM) | surviving fraction (CRIZOTINIB; 1000 nM) | surviving fraction (CRIZOTINIB; 5 nM) | surviving fraction (CRIZOTINIB; 10 nM) | surviving fraction (CRIZOTINIB; 500 nM)
1 | 22RV1 PROSTATE | 1.08 ± 0.029 | 1.04 ± 0.044 | 1.05 ± 0.036 | 1.01 ± 0.09 | 1.06 ± 0.031 | 1 ± 0.05 | 1.04 ± 0.049 | 0.997 ± 0.051 | 0.993 ± 0.1 | 1.11 ± 0.083 | 1.11 ± 0.091 | 0.976 ± 0.16 | 0.459 ± 0.024 |  |  | 
2 | 93VU HEADNECK | 1.02 ± 0.1 | 1.01 ± 0.074 | 1.12 ± 0.033 | 1.07 ± 0.09 | 0.955 ± 0.072 | 0.955 ± 0.03 | 0.92 ± 0.049 | 0.837 ± 0.096 | 1.08 ± 0.14 | 1.09 ± 0.072 | 1.14 ± 0.14 | 1.18 ± 0.081 | 0.853 ± 0.038 | 1.08 ± 0.12 | 1.16 ± 0.037 | 
3 | 143B BONE | 1.025 ± 0.0014 | 1.044 ± 0.0092 | 1.04 ± 0.019 | 1 ± 0.025 | 1.05 ± 0.027 | 1.01 ± 0.017 | 1.02 ± 0.023 | 0.9915 ± 0.005 |  |  | 1.09 ± 0.015 |  | 0.865 ± 0.011 | 1.08 ± 0.012 |  | 
4 | A549 LUNG | 1.06 ± 0.036 | 1.07 ± 0.042 | 1.06 ± 0.031 | 1.05 ± 0.035 | 1.06 ± 0.025 | 1.04 ± 0.045 | 1.09 ± 0.021 | 1.02 ± 0.057 | 1.07 ± 0.027 | 1.07 ± 0.015 | 1.09 ± 0.023 | 1.1 ± 0.025 | 0.649 ± 0.07 |  |  | 1.09 ± 0.043
5 | ASKA SYNOVIAL | 1.16 ± 0.13 | 1.13 ± 0.043 | 1.14 ± 0.096 | 1.06 ± 0.09 | 0.936 ± 0.051 | 0.921 ± 0.044 | 0.772 ± 0.056 | 0.655 ± 0.071 |  | 0.942 ± 0.039 | 0.539 ± 0.043 | 0.405 ± 0.016 | 0.205 ± 0.0093 | 0.848 ± 0.05 | 0.7377 ± 0.007 | 0.168 ± 0.0038
6 | BT20 BREAST | 0.996 ± 0.12 | 1.14 ± 0.055 | 0.942 ± 0.14 | 1.04 ± 0.096 | 0.757 ± 0.1 | 0.732 ± 0.13 | 0.795 ± 0.21 | 0.773 ± 0.085 | 1.24 ± 0.013 | 1.23 ± 0.091 | 1.05 ± 0.067 | 1.08 ± 0.031 | 0.592 ± 0.095 | 1.13 ± 0.059 | 1.25 ± 0.05 | 1.13 ± 0.088
7 | BT549 BREAST | 1.03 ± 0.096 | 1.01 ± 0.064 | 0.941 ± 0.0053 | 0.9883 ± 0.0074 | 0.686 ± 0.041 | 0.719 ± 0.062 | 0.718 ± 0.033 | 0.598 ± 0.048 |  | 1.07 ± 0.056 | 1.05 ± 0.062 | 1.09 ± 0.097 | 0.375 ± 0.016 |  | 1.06 ± 0.041 | 
8 | C33A CERVIX | 1.04 ± 0.098 | 1.04 ± 0.02 | 1.07 ± 0.049 | 1.03 ± 0.017 | 1.05 ± 0.098 | 0.998 ± 0.14 | 0.895 ± 0.068 | 0.841 ± 0.11 | 0.954 ± 0.064 | 0.983 ± 0.088 |  |  | 0.828 ± 0.092 |  | 1.04 ± 0.13 | 0.925 ± 0.076
9 | CADOES1 SOFT TISSUE | 1.01 ± 0.059 | 0.855 ± 0.072 | 1.03 ± 0.07 | 0.8393 ± 0.0035 | 0.951 ± 0.046 | 0.953 ± 0.076 | 0.895 ± 0.084 | 0.81 ± 0.14 |  | 0.892 ± 0.084 | 0.902 ± 0.073 | 0.949 ± 0.077 | 0.314 ± 0.06 | 0.953 ± 0.13 | 0.91 ± 0.11 | 0.713 ± 0.18
10 | CAL51 BREAST | 0.97 ± 0.044 | 1 ± 0.051 | 0.95 ± 0.025 | 0.926 ± 0.07 | 0.948 ± 0.03 | 0.882 ± 0.076 | 0.828 ± 0.024 | 0.66 ± 0.051 | 0.981 ± 0.081 | 1.03 ± 0.034 | 1.01 ± 0.05 | 1.05 ± 0.046 | 0.213 ± 0.012 | 1.03 ± 0.012 | 1.07 ± 0.052 | 0.232 ± 0.024
11 | CAL72 BONE | 1.05 ± 0.017 | 1.098 ± 0.0086 | 1.0433 ± 0.00058 | 1.06 ± 0.033 | 0.98 ± 0.029 | 0.958 ± 0.027 | 0.949 ± 0.021 | 0.901 ± 0.029 | 1.09 ± 0.13 | 1.09 ± 0.13 | 1.08 ± 0.15 | 1.1 ± 0.11 | 0.814 ± 0.17 | 1.09 ± 0.12 | 1.11 ± 0.17 | 0.859 ± 0.15
12 | CAL120 BREAST | 0.9857 ± 0.0086 | 0.998 ± 0.018 | 1 ± 0.023 | 0.973 ± 0.024 | 0.979 ± 0.01 | 0.942 ± 0.04 | 0.892 ± 0.013 | 0.825 ± 0.043 | 0.969 ± 0.069 | 1 ± 0.076 | 1 ± 0.04 | 1.01 ± 0.049 | 0.685 ± 0.026 | 0.982 ± 0.038 |  | 0.933 ± 0.012
13 | CASKI CERVIX | 0.921 ± 0.029 | 0.947 ± 0.057 | 0.993 ± 0.051 | 0.982 ± 0.015 | 0.859 ± 0.016 | 0.844 ± 0.026 | 0.749 ± 0.075 | 0.765 ± 0.068 | 0.955 ± 0.029 | 1 ± 0.067 | 0.999 ± 0.053 | 0.984 ± 0.052 | 0.383 ± 0.029 |  | 1.04 ± 0.06 | 0.382 ± 0.063
14 | CHLA90 AUTONOMIC GANGLIA | 1.02 ± 0.065 | 1.07 ± 0.037 | 1.01 ± 0.035 | 0.993 ± 0.048 | 0.95 ± 0.052 | 1.01 ± 0.078 | 0.963 ± 0.061 | 0.966 ± 0.059 |  | 1 ± 0.025 |  |  | 0.476 ± 0.096 | 0.951 ± 0.016 | 0.929 ± 0.056 | 0.755 ± 0.14
15 | CME SYNOVIAL | 1.29 ± 0.3 | 1.27 ± 0.059 | 1.23 ± 0.11 | 1.16 ± 0.22 | 0.737 ± 0.14 | 0.616 ± 0.051 | 0.386 ± 0.053 | 0.303 ± 0.021 | 1.23 ± 0.11 | 1.23 ± 0.1 | 1.21 ± 0.1 | 1.18 ± 0.022 | 0.286 ± 0.033 | 1.36 ± 0.16 |  | 0.65 ± 0.035
16 | COLO320DM LARGE INTESTINE | 1.13 ± 0.19 | 0.997 ± 0.15 | 1.09 ± 0.046 | 1.03 ± 0.21 | 1.07 ± 0.091 | 1.03 ± 0.082 | 1.06 ± 0.048 | 0.991 ± 0.03 | 1.13 ± 0.11 | 1.12 ± 0.055 | 1.21 ± 0.051 | 1.12 ± 0.092 | 0.398 ± 0.043 | 1.11 ± 0.056 | 1.04 ± 0.092 | 0.622 ± 0.015
17 | DU4475 BREAST | 1.16 ± 0.21 | 1.36 ± 0.5 | 1.228 ± 0.009 | 1.22 ± 0.31 | 0.954 ± 0.28 | 0.739 ± 0.23 | 0.689 ± 0.21 | 0.517 ± 0.15 | 0.991 ± 0.16 | 1 ± 0.12 |  |  | 0.389 ± 0.057 |  | 0.947 ± 0.17 | 0.611 ± 0.05
18 | H23 LUNG | 1.09 ± 0.03 | 1.07 ± 0.02 | 1.1 ± 0.022 | 1.064 ± 0.004 | 1.22 ± 0.03 | 1.13 ± 0.041 | 1.14 ± 0.0042 | 1.08 ± 0.02 | 1.04 ± 0.058 | 1.02 ± 0.025 | 1.06 ± 0.062 | 1.11 ± 0.059 |  | 1.07 ± 0.04 | 1.08 ± 0.02 | 1.11 ± 0.072
19 | HCC78 LUNG | 0.948 ± 0.06 | 0.986 ± 0.2 | 1.03 ± 0.32 | 1.22 ± 0.46 | 1.12 ± 0.1 | 1.05 ± 0.12 | 0.987 ± 0.19 | 0.859 ± 0.068 | 0.99 ± 0.11 | 1 ± 0.074 | 0.521 ± 0.021 | 0.522 ± 0.082 | 0.072 ± 0.029 |  |  | 0.216 ± 0.062
